Laboratory results from paper PMC8268987, “In Search of Effective Anticancer Agents—Novel Sugar Esters Based on Polyhydroxyalkanoate Monomers” (International Journal of Molecular Sciences, 2021).
pIC50: −log10 of the molar value. Like-named read-outs stand apart in the source and are kept apart here.

What was measured:
[1] = system: normal (control) and cancer cell lines; test: MTT cytotoxicity assay, summary statements over the tested cell lines; type: cell-based, human; settings: data not shown
HTB140 cells [2] = test: Nuclei roundness by image analysis, HTB140; type: cell-based, human; settings: 0.0625 mg mL^–1; for nuclei circularity index: HTB140, after the first 24 h
Method: (§1) Cellular studies 12-well plates were used, cell density 3 × 10^5 per well. After 24 h and 48 h of incubation with tested compounds (0.0625 mg mL^–1), the samples were fixed according to standard protocol. Tubulin (green; AlexaFluor-488 mouse anti-β-tubulin IgG; BD Biosciences, San Jose, CA, USA, Pharminogen; cat. 558605), vimentin (infra-red; I: rabbit-anti-vimentin IgG; GeneTex, Irvine, CA, USA; GTX100619; II: chicken-anti-rabbit-AlexaFluor647 IgG; ThermoFisher, Waltham, MA, USA) and counterstained nuclei (blue; Hoechst 33258; Sigma-Aldrich, Darmstadt, Germany) and F-actin (red; AlexaFluor546-phalloidin; ThermoFisher, Waltham, MA, USA). Next, the samples were washed 5 times with deionized water and prepared for imaging with Fluorescent Mounting Medium (Dako Omnis, Agilent, Santa Clara, CA, USA). Microscopic measurements and observations were carried out with the use of fluorescent techniques performed on Zeiss Axio Observer Z.1 microscope with LSM 710 module (Carl Zeiss Microscopy GmbH Carl-Zeiss-Promenade 10, 07745 Jena, Germany). Image acquisition, processing, deconvolution and analysis were performed using Zeiss ZEN Black software ver. 8.1.0.484 and FluoRender 2.21.0. An oil immersion 40×/NA:1.4 lens was used for observations. Parameters used for acquisition of cell morphology were: nucleus—blue channel (405 nm); microtubular network—green channel (488 nm); Actin—red channel (546 nm); vimentin—far red channel (647 nm).

[3] = system: HTB140 human skin melanoma cells; test: MTT cytotoxicity assay, HTB140
Method: (§3) The following cell lines were used: human prostate cancer cells from metastases to the brain DU145 (ATCC® HTB-81™, Manassas, Virginia); healthy human prostate epithelial cell line as a control (PNT2; Sigma-Aldrich, Darmstadt, Germany); human melanoma Hs 294T (ATCC® HTB-140™, Manassas, Virginia); human epidermal keratinocytes (HaCaT) HEK001 (ATCC® CRL-2404™, Manassas, Virginia); and normal human skin fibroblasts BJ (ATCC® CRL2522™) as controls. The cells were cultured in 37 °C with humidified atmosphere enriched with 5% CO2 in appropriate cell culture media: DMEM F12Ham (Sigma-Aldrich, Darmstadt, Germany) + 5% FBS (Thermo Fisher Scientific; Gibco; Waltham, MA, USA); RPMI-1640 (Sigma-Aldrich, Darmstadt, Germany) + 10% FBS (Thermo Fisher Scientific; Gibco; Waltham, MA, USA); DMEM high glucose (Sigma-Aldrich) + 10% FBS (Thermo Fisher Scientific; Gibco; Waltham, MA, USA); DMEM low glucose (Sigma-Aldrich, Darmstadt, Germany) + 10% FBS (Thermo Fisher Scientific; Gibco; Waltham, MA, USA). All media contained a penicillin/streptomycin (Sigma-Aldrich, Darmstadt, Germany) cocktail.
(§4) For the determination of the cytotoxic effect of tested compounds, normal (control) and cancer cell lines cells were tested at a concentration of 2.5 × 10^4 cells cm^–^2 in appropriate culture medium into 96 well microplates (VWR, Radnor, PA, USA). Cells were preincubated with four different concentrations of tested compounds: 0.5, 0.25, 0.125 and 0.0625 mg mL^–1 for 24 h, 72 h and 120 h in cell incubator. After the incubation, MTT labelling reagent (final concentration 0.5 mg mL^–1) and solubilizing solution were added according to the protocol. The samples absorbance was measured using a microplate reader (Multiscan FC; Thermo Fisher Scientific, Waltham, MA, USA) by 570 nm wavelength, 620 nm for reference.

[4] = system: HaCAT human skin keratynocytes
Method: as §3, §4

[5] = system: HSF human skin fibroblasts; test: MTT cytotoxicity assay, HSF (control); settings: 72 h
Method: as §3, §4

[6] = system: DU145 prostate cancer cells; test: MTT cytotoxicity assay, DU145
Method: as §3, §4

[7] = system: HaCAT human skin keratynocytes; test: MTT cytotoxicity assay, HaCAT (control); settings: 72 h
Method: as §3, §4

[8] = system: PNT2 prostate epithelium cells; test: MTT cytotoxicity assay, PNT2 (control)
Method: as §3, §4

[9] = system: HSF human skin fibroblasts
Method: as §3, §4

DU145 cells [10] = test: Transmigration assay (Boyden's chamber), DU145; type: cell-based, human; settings: DU145, 96 h, 0.0625 mg mL^–1, transmigration/proliferation ratio relative to sugar control
Method: (§2) Transmigration assay was performed using 24-well glass-bottom plate (Eppendorf) containing microporous membranes in Boyden’s chamber (Corning; pore diameter: 8 μm; membrane diameter: 6.5 mm). Native DU145 and HTB140 cells were seeded at density of 3 × 10^5 cells per membrane with tested compounds (0.0625 mg mL^–1) and left for 48 and 96 h for transmigration. The transmigrating cells were fixed with 3.7% formaldehyde and counted. The result is presented as a reference to the rate of cell proliferation in the corresponding compound.

DU145 cells [11] = test: Nuclei roundness by image analysis, DU145; type: cell-based, human; settings: DU145, after 48 h, 0.0625 mg mL^–1
Method: as §1, with “Parameters used for acquisition of cell morphology were: nucleus—blue channel (405 nm); microtubular network—green channel (488 nm); Actin—red channel (546 nm); vimentin—far red channel (647 nm).” left out

HTB140 cells [12] = test: Transmigration assay (Boyden's chamber), HTB140; type: cell-based, human; settings: HTB140, 96 h, 0.0625 mg mL^–1, relative to sugar control
Method: as §2

[13] = system: Jurkat (Human T-cell leukemia); parameters: method as in doi:10.1002/app.47192, PMID 29904629; settings: cited from earlier work

pIC50 [4]	Molecule	cytotoxicity in the MTT test (in words) [1]	nuclei circularity index (HTB140 cells [2])	pIC50 ([3]; HTB140, 24 h)	pIC50 ([3]; HTB140, 72 h)	pIC50 ([3]; HTB140, 120 h)	pIC50 [5]	pIC50 ([6]; DU145, 24 h)	pIC50 ([6]; DU145, 72 h)	pIC50 ([6]; DU145, 120 h)	pIC50 [7]	pIC50 ([8]; PNT2, 24 h)	pIC50 ([8]; PNT2, 72 h)	pIC50 ([8]; PNT2, 120 h)	other results
–	O=C[C@H](O)[C@@H](O)[C@@H](O)[C@H](O)CO [gal, β-d-galactopyranose, reference compound]	low cytotoxicity	smallest round nuclei	–	–	–	–	–	–	–	–	–	–	–	–
–	OC[C@H]1OC(O)[C@H](O)[C@@H](O)[C@@H]1O (stereo partly drawn) [glu, α-D-glucopiranose, reference compound]	low cytotoxicity	smallest round nuclei	–	–	–	–	–	–	–	–	–	–	–	–
2.81	galactose nonanoic ester [C9-gal]	–	–	2.78	2.81	2.81	2.81	2.81	3.11	2.81	2.81	2.62	2.91	2.63	pIC50 [9]: 2.81
–	lactose nonanoic ester [C9-lac]	–	highest circularity index	3.21	3.04	3.09	3.04	3.04	3.08	3.34	3.04	2.77	3.04	2.76	pIC50 ([3]; read-out: Cytotoxicity of SFAE determined by MTT assay (IC50), Supplementary Table 2, HTB 140, 24 h, standard deviation on line d below): 3.21; pIC50 ([3]; read-out: Cytotoxicity of SFAE determined by MTT assay (IC50), Supplementary Table 2, HTB 140, 120 h, standard deviation on line d below): 3.09; pIC50 ([6]; read-out: Cytotoxicity of SFAE determined by MTT assay (IC50), Supplementary Table 2, DU145, 72 h, standard deviation on line d below): 3.08; pIC50 ([6]; read-out: Cytotoxicity of SFAE determined by MTT assay (IC50), Supplementary Table 2, DU145, 120 h, standard deviation on line d below): 3.34; reduction of transmigration (DU145 cells [10]): 25%; pIC50 ([8]; read-out: Cytotoxicity of SFAE determined by MTT assay (IC50), Supplementary Table 2, PNT2, 24 h, standard deviation on line d below): 2.77; pIC50 ([8]; read-out: Cytotoxicity of SFAE determined by MTT assay (IC50), Supplementary Table 2, PNT2, 120 h, standard deviation on line d below): 2.76; change of nuclei roundness (DU145 cells [11]): decrease in nucleus roundness index; decrease of transmigration (HTB140 cells [12]): 16%; change of nuclei shape (decrease in roundness index) (HTB140 cells [2]; HTB140, after the next 24 h (48 h)): biggest change
2.85	mixture of (3R)-hydroxynonanoate glucose esters and (3R)-hydroxyheptanoate glucose esters [mPHN-glu]	–	–	–	–	–	–	–	–	–	–	–	–	–	–
–	octanoic acid glucose ester	–	–	–	–	–	–	–	–	–	–	–	–	–	pIC50 [13]: 3.92
